Laboratory results from patent publication US5753636A, “Injection solution for intramuscular and subcutaneous administration to animals” (priority 1993, dated 1998).
Like-named read-outs stand apart in the source and are kept apart here.

Tests used:
[1] = system: injection site; conditions: cited from earlier work
[2] = system: injection site; assay: Local tolerability / irritation at the injection site, general statements; conditions: applicant's statement
[3] = system: injection site; conditions: in vivo
[4] = statement on known products, solvents or bases

## CC(O)CO (centres unmarked) [1,2-propanediol]
[1]; [4]
  local tolerability / irritation: highly irritant and have haemolytic effects

## N=C(N)NCCC[C@H](N)C(=O)O [L-arginine]
[2]
  local tolerability / irritation: excellent local tolerability

## NCCCC[C@H](N)C(=O)O [L-lysine]
[2]
  local tolerability / irritation: excellent local tolerability

## NCCC[C@H](N)C(=O)O [L-ornithine]
[2]
  local tolerability / irritation: excellent local tolerability

## [O]=[Mg] [MgO, Magnesium oxide]
[3]
  local tolerability / irritation: irritant for tissue

## OCCNCCO [diethanolamine]
[1]; in vivo
  local tolerability / irritation: very irritant

## NCCO [monoethanolamine]
[1]; [4]
  local tolerability / irritation: very irritant

## polyethylene glycol
[1]; in vivo
  local tolerability / irritation: highly irritant and have haemolytic effects
